Measured values as given in publication PMC12393501, “Recruitment of Mre11 to recombination sites during meiosis” (Research Square, 2025).
Ends that are not written are not given here.

Experiments:
mre11-ΔC49 mutant = assay: MMS and CPT sensitivity assay, mre11-ΔC49; assay type: cell-based, Saccharomyces cerevisiae; conditions: ten-fold serial dilutions on YPD plates, two days at 30°C
Protocol: (§1) Following standard protocols, strains were patched on YPG plates, mated and streaked on YPD plates, and selected diploid colonies grown in liquid YPD at 30°C, 250 rpm, overnight. For meiotic synchronization, diploid cultures grown overnight in YPD were transferred to YPA (1% yeast extract, 2% peptone, 1% potassium acetate) at OD600 0.2 and grown for 12–14 hours at 30°C, 250 rpm. Once the cultures reached OD600 between 1.2–1.6, cells were washed once with prewarmed sterile water and immediately transferred to sporulation medium supplemented with amino acids (320 μL amino acid complementation media for 100 mL of sporulation media (SPM)) and were kept shaking at 30°C, 250 rpm during the entire meiotic time-course. For MMS and CPT (Sigma) sensitivity assays, serial dilutions of overnight cultures were spotted on freshly prepared YPD-MMS or YPD-CPT plates containing indicated percentage of MMS or CPT, respectively. Plates were grown for two days at 30°C. For immunofluorescence of vegetatively growing cells, overnight cultures were refreshed by diluting to OD600 0.2 and grown for 3–4 hours to reach OD600 1.2–1.4 before subjecting to MMS or MMS followed by 5% 1,6-hexanediol treatment. For 5% 1,6-hexanediol treatment, cells were first converted to spheroplasts and then treated with 5% 1,6-hexanediol for 4–5 minutes. […]

mre11-ΔIDR mutants = assay: MMS and CPT sensitivity assay, mre11-ΔIDR; assay type: cell-based, Saccharomyces cerevisiae; conditions: ten-fold serial dilutions on YPD plates, two days at 30°C
Protocol: as §1

pUC19 plasmid DNA [1] = assay: In vitro condensation assay, MRX complex
Protocol: (§2) Proteins were diluted to a 10× stock of their appropriate working concentrations in their respective storage buffers. Reactions were performed in a buffer containing 25 mM HEPES-HCl (pH 7.5), 2 mM DTT, 1 mg/ml BSA, 5% glycerol, 5 mM MgCl2, 5% PEG-3350, and NaCl. Considering the salt contributed by the protein dilution buffer, final concentration of NaCl in a reaction was adjusted to 120 mM. Unless specified otherwise, all reactions contained 400 nM ^Alexa488Mre11 or 100 nM ^eGFPMRX. A typical 20 μL binding reaction contained 2 μL protein of 10× stock of indicated concentration, 10 μL of 2× reaction buffer, and 150 ng of supercoiled pUC19 (5.7 nM). Typical reactions were assembled at 30°C for 30 mins with gentle mixing every 5 mins, unless mentioned otherwise. 5 μL was dropped onto a microscope slide and covered with a coverslip. All images were captured on a Zeiss Axio Observer with a 100×/1.4 NA oil immersion objective except for images provided in Figure 4G which were captured on Leica Stellaris DMI 8 confocal microscope with a 63x/1.2 NA water immersion objective. Images were analyzed with ImageJ using a custom-made script. In brief, 129.24 × 129.24-μm (2048 × 2048-pixel) images were thresholded to mean intensity of the background plus three times the standard deviation of the background. Masked foci were counted and the intensity inside the focus mask was integrated. Data points represent averages of at least 8–10 images per sample. Data were analyzed using Graphpad Prism 10.4.0.

pUC19 plasmid = assay: Gel shift assay DNA binding; conditions: 1 nM pUC19, pH 7.5, 100 mM NaCl, 5 mM EDTA, 30°C for 30 mins
Protocol: Proteins were diluted to their appropriate working concentrations in their respective storage buffers. […] Reactions were assembled at 30°C for 30 mins and resolved in a 1% agarose (SeaKem LE Agarose, Lonza) at 60 V for 120 mins at 4°C. Gels were stained with SYBR Gold Nucleic Acid Gel Stain (S11497, Invitrogen) for 40 mins and visualized with Amersham Typhoon biomolecular imager (Cytiva).

pUC19 plasmid DNA [2] = assay: In vitro condensation assay, Mre11; conditions: for Condensate formation: in the presence of plasmid DNA (pUC19), pH 7.5, 120 mM NaCl, 30°C, fluorescence microscopy
Protocol: as §2

Mer2 [3] = assay: Colocalization of Mre11 with Mer2 condensates in vitro; assay type: binding, Saccharomyces cerevisiae
Protocol: as §2, with “Reactions were performed in a buffer containing 25 mM HEPES-HCl (pH 7.5), 2 mM DTT, 1 mg/ml BSA, 5% glycerol, 5 mM MgCl2, 5% PEG-3350, and NaCl. Considering the salt contributed by the protein dilution buffer, final concentration of NaCl in a reaction was adjusted to 120 mM.” left out

[4] = tested on: vegetative yeast cells expressing myc-tagged Mre11; assay: Immunofluorescence of MMS-induced Mre11-myc foci, vegetative nuclear spreads; assay type: cell-based, Saccharomyces cerevisiae; conditions: 5% 1,6-hexanediol, 4–5 minutes, vegetative spheroplasts
Protocol: (§3) Following standard protocols, strains were patched on YPG plates, mated and streaked on YPD plates, and selected diploid colonies grown in liquid YPD at 30°C, 250 rpm, overnight. For meiotic synchronization, diploid cultures grown overnight in YPD were transferred to YPA (1% yeast extract, 2% peptone, 1% potassium acetate) at OD600 0.2 and grown for 12–14 hours at 30°C, 250 rpm. […]
(§4) Slides were blocked with 90% FBS, 1× PBS for 1 hour at room temperature in a humid chamber and then incubated with primary antibody (mouse mAb anti-myc, 1:200 (2276S, Cell Signaling Technology), rabbit anti-phospho H2A-S129, 1:200 (ab15083, abcam)) diluted in 3% BSA, 1× PBS in a humid chamber for 2 hours at 37°C or overnight at 4°C. Slides were washed three times with 1× PBS in a Coplin jar, were incubated with secondary antibody (goat anti-mouse IgG Alexa Fluor™ Plus 488, 1:200 (A32723, Invitrogen), donkey anti-rabbit IgG Alexa Fluor™ 546, 1:200 (A10040, Invitrogen) diluted in 3% BSA, 1× PBS in a humid chamber at 37°C for 1 hour. Slides were washed in the dark three times for 5 mins with 1× PBS, mounted with Vectashield containing DAPI (Vector Labs). Images were captured on a Zeiss Axio Observer with a 100×/1.4 NA oil immersion objective and were analyzed in ImageJ.

[5] = tested on: meiotic yeast cells expressing myc-tagged Mre11; assay: Immunofluorescence of Mre11-myc foci, meiotic nuclear spreads; assay type: cell-based, Saccharomyces cerevisiae; conditions: 5% 1,6-hexanediol, brief exposure, 4 hours after transfer to SPM
Protocol: as §3, §4

Mer2 [6] = assay: Yeast two-hybrid Mer2-Mre11 interaction; assay type: binding, Saccharomyces cerevisiae; conditions: SC-Leu-Ura-His + 25 mM 3-AT, 4–5 days at 30°C; at least four independent transformants
Protocol: Bait and prey plasmids were co-transformed into yWL365 using the standard ‘LiAc’-based transformation and plated on SC-Leu-Ura selective media. At least four independent transformants were tested for Mer2-Mre11 interaction by spotting a dilution series on SC-Leu- Ura-His + 25 mM 3-AT (3-amino-1,2,4-triazole) and growing for 4–5 days at 30°C.

COS(C)(=O)=O [MMS, methylmethanesulfonate]
Sensitivity of mre11-ΔC49 mutant to treatment (mre11-ΔC49 mutant): resistant | Sensitivity of mre11-ΔIDR mutants relative to wild type (mre11-ΔIDR mutants): as resistant to MMS or CPT as wild-type cells

MRX: Mre11-Rad50-Xrs2 complex with an eGFP tag at the N-terminus of Mre11
Effect of crowding agents on condensation (pUC19 plasmid DNA [1]; 5% PEG-3350): promoted | Role of the Mre11 C-terminal extremity in focus formation of MRX (pUC19 plasmid DNA [1]; eGFP-tagged MRX, ΔC49): required for efficient focus formation | Condensate formation (pUC19 plasmid DNA [1]; in the presence of plasmid DNA (pUC19), pH 7.5, 120 mM NaCl, 30°C, fluorescence microscopy): form large clusters visible by fluorescence microscopy

Mre11: Alexa488-labeled or eGFP-tagged budding yeast Mre11 nuclease
Species of reduced electrophoretic mobility at higher protein concentration (pUC19 plasmid): formed complexes of reduced mobility at higher protein concentration | Effect of crowding agents on condensation (pUC19 plasmid DNA [2]; 5% PEG-3350): promoted | Effect of divalent metal ions on condensation (pUC19 plasmid DNA [2]; divalent metal ions): enhanced | Condensate formation (pUC19 plasmid DNA [2]): form large clusters visible by fluorescence microscopy | Concentration above which foci intensity increases steeply (pUC19 plasmid DNA [2]; protein titration, pUC19 DNA): above 200 nM | Colocalization with Mer2 (Mer2 [3]; 200 nM Alexa594-Mer2 and eGFP-Mre11 assembled separately 10 minutes, then mixed 1:1 for 30 minutes): nearly absolute colocalization

C-terminus of Mre11: mScarlet-labelled Mre11-C49 (SYGLLNGRKTKTKTRPAASTKTASRRGKGRASRTPKTDILGSLLAKKRK; also: mScarlet tag; UniProt P32829 644-692, looked up, fragment)
Condensate formation of the C-terminus without Mer2 (Mer2 [3]; 800 nM mScarlet-Mre11-C49, control lacking eGFP-Mer2): does not form condensates independently | Localization in the presence of Mer2 condensates (Mer2 [3]; 800 nM mScarlet-Mre11-C49 and 200 nM eGFP-Mer2, 30 minutes): forms a halo-like structure around Mer2 condensates

OCCCCCCO [1,6-hexanediol]
Effect on MMS-induced Mre11 foci [4]: readily dissolved MMS-induced foci, which instead coalesced into a few aggregates of high intensity | Effect on meiotic Mre11 foci [5]: disassembles these foci

CC[C@@]1(O)C(=O)OCc2c1cc1n(c2=O)Cc2cc3ccccc3nc2-1 [CPT, camptothecin]
Sensitivity of mre11-ΔC49 mutant to treatment (mre11-ΔC49 mutant): resistant | Sensitivity of mre11-ΔIDR mutants relative to wild type (mre11-ΔIDR mutants): as resistant to MMS or CPT as wild-type cells

B1: truncation of the terminal 15 amino acids of Mre11: Mre11 lacking the terminal 15 amino acids (pGAD-C1-Mre11-ΔC15) (protein)
chain: MDYPDPDTIRILITTDNHVGYNENDPITGDDSWKTFHEVMMLAKNNNVDMVVQSGDLFHVNKPSKKSLYQVLKTLRLCCMGDKPCELELLSDPSQVFHYDEFTNVNYEDPNFNISIPVFGISGNHDDASGDSLLCPMDILHATGLINHFGKVIESDKIKVVPLLFQKGSTKLALYGLAAVRDERLFRTFKDGGVTFEVPTMREGEWFNLMCVHQNHTGHTNTAFLPEQFLPDFLDMVIWGHEHECIPNLVHNPIKNFDVLQPGSSVATSLCEAEAQPKYVFILDIKYGEAPKMTPIPLETIRTFKMKSISLQDVPHLRPHDKDATSKYLIEQVEEMIRDANEETKQKLADDGEGDMVAELPKPLIRLRVDYSAPSNTQSPIDYQVENPRRFSNRFVGRVANGNNVVQFYKKRSPVTRSKKSGINGTSISDRDVEKLFSESGGELEVQTLVNDLLNKMQLSLLPEVGLNEAVKKFVDKDEKTALKEFISHEISNEVGILSTNEEFLRTDDAEEMKALIKQVKRANSVRPTPPKENDETNFAFNGNGLDSFRSSNREVRTGSPDITQSHVDNESRITHISQAESSKPTSKPKRVRTATKKKIPAFSDSTVISDAENELGDNNDAQDDVDIDENDIIMVSTDEEDASYGLLNGRKTKTKTRPAASTKTASRRGKGRASRT
modifications: left off: Gal4 activation domain (from the vector pGAD-C1), end not stated, kept
Interaction with Mer2 (yeast two-hybrid) (Mer2 [6]): abolished the interaction with Mer2

B2: Mre11^IDR: purified eGFP-tagged Mre11 IDR alone (protein, UniProt P32829 524-677, looked up, fragment)
chain: NSVRPTPPKENDETNFAFNGNGLDSFRSSNREVRTGSPDITQSHVDNESRITHISQAESSKPTSKPKRVRTATKKKIPAFSDSTVISDAENELGDNNDAQDDVDIDENDIIMVSTDEEDASYGLLNGRKTKTKTRPAASTKTASRRGKGRASRT
modifications: IDR eGFP tag
notes: purified eGFP-tagged Mre11 IDR alone
DNA binding compared to the WT or Mre11-ΔIDR (pUC19 plasmid): reduced DNA binding | Condensate formation (pUC19 plasmid DNA [2]): failed to form condensates
